Like-named read-outs stand apart in the source and are kept apart here. Where only a bound is given, the exact number is not on record here.

This is an account of results in PMC11359702, “Synthesis and Biochemical Evaluation of Ethanoanthracenes and Related Compounds: Antiproliferative and Pro-Apoptotic Effects in Chronic Lymphocytic Leukemia (CLL)” (Pharmaceuticals, 2024).

Data set [1] concerns PGA-1 cells. Conditions: 10 µM.
The test system of a further data set is CCRF-CEM. In words: NCI-60 five-dose assay. Type of data set: cell-based, human.
Data set [2] relates to HG-3 cells. As to conditions: 10 µM.
Data set [3] has as its system HG-3 cells. The data set can be described thus: LDH cytotoxicity assay (CytoTox 96). The format is cell-based. Conditions: HG-3, 10 µM, 24 h, lysis solution = 100%. From the text:
(§1) The lactate dehydrogenase (LDH) assay is used to assess the membrane integrity of cells as a function of the cytoplasmic LDH released. The loss of cell membrane integrity (due to cytotoxic insult) is detectable through LDH release into the cell growth medium. The assay is initiated via the reduction in cellular co-factor NAD^+ to NADH catalyzed via the LDH enzyme. Newly formed NADH catalyzes the acidic reduction in iodonitrotetrazolium chloride (INT) to the highly colored formazan (red) (mediated via the diaphorase enzyme). […] At the 10-µM treatment concentration, mild to moderate cytotoxicity (19–47%) was observed. […] Cytotoxicity remained low to mild at 1 µM (4–18%) with 23a displaying the lowest LDH release (4%).
(§2) Following the treatment of the HG-3 and PGA-1 cells at 10 µM for 24 hr, the amount of LDH released was determined using an LDH assay kit from Promega (G1780). Cell lysis solution = 100% cell lysis and LDH release). Data are presented as % cell death at a concentration of 10 µM. Cells were treated with ethanoanthracene compounds 20a, 20f, 23a and 25n (1 µM and 10 µM) for 24 h. Values are shown as the mean of three independent experiments.
(§3) The cytotoxicity of the selected compounds 20a, 20f, 23a and 25n was determined using the CytoTox 96 non-radioactive cytotoxicity assay (Promega Corporation; 2800 Woods Hollow Road, Madison, WI, USA). CLL cells HG-3 and PGA-1 were incubated for 24 h and then treated with the selected compounds 20a, 20f, 23a and 25n at 10-µM and 1-µM concentrations, following the protocol outlined above in the cell viability assay. After 24 h, the lysis solution (10×) (20 µL) was added, and the cells were incubated for a further 1 h to ensure complete cell death. Supernatant (50 µL) was removed from each well and transferred to a clean 96-well plate. “Substrate mix” (50 µL) was added, and the plate was stored in the dark at 20 °C for 30 min. “Stop solution” (50 µL) was added to each well, and the absorbance at 490 nm was recorded using a Dynatech MR5000 plate reader; the % cell death was determined relative to the control cell lysis solution.

Data set [4] relates to PGA-1 cells. In words: LDH cytotoxicity assay (CytoTox 96). Type of data set: cell-based. Conditions: 24 h.
From the text: as §1, §2, §3

Data set [5] can be described thus: HPLC stability study in phosphate buffers. Type of data set: physicochemical. Conditions: for remaining at 24 h, 14.6 µg/mL / half-life at 14.6 µg/mL: phosphate buffer, 37 °C; for remaining at 24 h, 14.6 µg/mL: HPLC. An outline of the steps: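 Compound stock (5 mg in 10 mL 80:20 acetonitrile–water) added to phosphate buffers at pH 4, 7.4 and 9 and held at 37 °C. Sampled over 24 h (0 min to 24 h) and analysed by C18 HPLC with UV detection at 254 nm; single experiments.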

The test system of another data set is SF295. In words: NCI-60 five-dose assay. The format is cell-based. Conditions: Homo sapiens, SF-295. On the procedure: (§4) A number of our most promising compounds identified through preliminary cell viability testing (23c, 23d, 23f, 23h, 23l, 23m, 23n, 23o, 24f, 24l, 25n and 26n) were selected for NCI drug screening in the 60-cell-line panel. The panel includes nine subcategories based on cancer tissue types, which include leukemia, ovarian, central nervous system, breast, lung, prostate, skin, renal and colon cancer. The compounds were initially assessed in a one-dose assay at a fixed treatment concentration of 10 µM. The compounds selected for further investigation were progressed to a five-dose assay across the concentration ranges of 0.01, 0.1, 1, 10 and 100 µM [72]. The endpoints assessed in the screening protocol were GI50, TGI and LC50 [72].

The test system of a further data set is T-47D. In words: NCI-60 five-dose assay. Type of data set: cell-based. Conditions: Homo sapiens, T47D. On the procedure:
as §4

What is called cell viability is the share of living cells, or the viability signal relative to a control. As usually defined, the GI50 is the concentration giving 50% growth inhibition. Turning to `O=C(/C=C/C12c3ccccc3C(c3ccccc31)C1C(=O)NC(=O)C12)c1ccc(Cl)cc1` (racemic) [Compound 23l, (E)-9-(3-(4-Chlorophenyl)-3-oxoprop-1-en-1-yl)-9,10-dihydro-9,10-[3,4]epipyrroloanthracene-12,14-dione], the results for the cell viability in the data set with PGA-1 cells [1] and in the data set on HG-3 cells [2] were 5% and 0.7%, respectively. Growth with CCRF-CEM was halved (GI50) at 1660 nM.
One may read the amount remaining as what is left of the initial amount, in per cent. In general, half-life refers to the time needed for the level to fall by half in the phase considered. With `O=C(C=CC12c3ccccc3C(c3ccccc31)C1C(=O)NC(=O)C12)c1ccc(Br)cc1` (stereo not shown) [Compound 23a, 9-(E)-3-(4-Bromophenyl)-3-oxoprop-1-en-1-yl)-9,10-dihydro-9,10-[3,4]epipyrroloanthracene-12,14-dione], the “LDH release (cytotoxicity, % cell death)” value was determined as 25% with HG-3 cells [3]; 4% with PGA-1 cells [4] (PGA-1, 1 µM); 23% in the data set on PGA-1 cells [4] (PGA-1, 10 µM). The “recovery at 24 h” value in data set [5] (over the pH range studied (pH 4, 7.4 and 9)) is listed as less than 50%. Further, the share remaining at 24 h, 14.6 µg/mL worked out at 3.12% in data set [5] (pH 4 buffer, read-out: % remaining 24 h pH 4); 1.38% in data set [5] (pH 7.4 buffer, read-out: % remaining 24 h pH 7.4); 0.48% in data set [5] (pH 9 buffer, read-out: % remaining 24 h pH 9). For the same molecule, the half-life at 14.6 µg/mL in data set [5] (pH 4 buffer, read-out: Half-life pH 4 (converted)) was 13.3 h; in data set [5] (pH 7.4 buffer, read-out: Half-life pH 7.4 (converted)) it was roughly 7.5 h; in data set [5] (pH 9 buffer, read-out: Half-life pH 9 (converted)) it was roughly 7.5 h.
With `O=C(C=CC12c3ccccc3C(c3ccccc31)C1C(=O)N(c3ccc(Cl)cc3)C(=O)C12)c1ccccn1` (stereo not shown) [Compound 25n, (E)-13-(4-Chlorophenyl)-9-(3-oxo-3-(pyridin-2-yl)prop-1-en-1-yl)-9,10-dihydro-9,10-[3,4]epipyrroloanthracene-12,14-dione], the “LDH release (cytotoxicity, % cell death)” value is 47% with HG-3 cells [3] and 15% in the data set on PGA-1 cells [4] (PGA-1, 10 µM). Also, the GI50 was 321 nM with CCRF-CEM, 320 nM with CCRF-CEM (Homo sapiens), 379 nM in the data set on SF295 and 312 nM in the data set on T-47D.
